Test results from patent publication US20200129459A1, “THE NEW USE OF 2-[(3Z)-6-FLUORO-2-METHYL-3-[(4-[…]) METHYLIDENE]INDEN-1 -YL] ACETIC ACID” (WYZSZA SZKOLA MEDYCZNA W BIALYMSTOKU, priority 2017, published 2020).

Tests used:
Type in all cases: in vivo, Wistar rats
[1] = tested on: rats with alloxan-induced diabetes; assay: Histology of healed wound skin; conditions: diabetic rats, skin excised next day after full epithelization; hematoxylin-eosin and van Gison staining
Description: Tissue specimens next day after full epithelization were excised in depth to include underlying connective tissues above the external fascia of the dorsal muscles. The excised skin was fixed in paraformaldehyde (4% in PBS, 0.01 M, pH 7.4), dehydrated in graded alcohol solutions, embedded in paraffin blocks and sectioned at 5 μm-thick serial sections using microtome.
Preparations from the collected skin fragments were prepared in a standard manner and stained with the classic method using hematoxylin and eosin, and by the van Gison method using picric acid and acid fuchsine. The preparations were analyzed using a Leica DM 1000 light microscope equipped with a Leica DFC300 FX digital camera.

[2] = tested on: sorbitol; assay: Sorbitol in subcutaneous muscle subjacent to the wound; conditions: diabetic rats, wet muscle weight
Description: Each muscle sample was cut into small pieces and ground in the presence of liquid nitrogen until it was powdered. The weight of the powered muscle tissue was determined, after which 1 mL of ice-cold 0.5 M perchloric acid was added and the samples were sonicated. The sonicated tissue was centrifuged for 5 min to remove precipitate. The resulting supernatant was neutralized by adding a solution 0.5 M potassium carbonate. The solution was then vortexed for 45 seconds, then centrifuged for 5 min at 5000 g and precipitate was discarded. The samples were stored in deep freezer at −86° C. until sorbitol determination.
The neutralized muscle extracts were vortexed and 10 μL aliquots along with sorbitol standards were added to a 96 well plate. Sorbitol dehydrogenase reaction was started by adding to each well 10 μL of a reaction mix containing 20 μg/μL sorbitol dehydrogenase, 2 mM NAD in 50 mM glycine-NaOH buffer pH 9.7. Following incubation with sorbitol dehydrogenase for 30 min at room temperature, 100 μL of a solution containing 65 μg/mL diaphorase, 10 uM FMN, 20 μM resazurin in 50 mM glycine-NaOH, pH 9.7 was added and the fluorescence (ex/em at 544/590 nm) was determined on a fluorescent plate reader for a period of an hour. Sorbitol content was expressed in nmol/mg of wet muscle weight.

[3] = target: T1, aldose reductase (Rattus norvegicus, UniProt P07943); assay: Rat subcutaneous muscle aldose reductase activity; conditions: subcutaneous muscle subjacent wound, diabetic rats
T1 construct: Tissue samples were homogenized in 135 mM Na, K-phosphate buffer (pH 7.0) containing 5 mM 2-mercaptoethanol; from tissue; host or cells: rat subcutaneous muscle subjacent to the wound (supernatant of the homogenate)
Description: Tissue samples were homogenized in 135 mM Na, K-phosphate buffer (pH 7.0) containing 5 mM 2-mercaptoethanol. The homogenate was centrifuged at 12,000 g for 30 min and the supernatant was used in the following steps. Aldose reductase activity was determined according to the classic method with glyceraldehyde as substrate. The incubation mixture contained 135 mM Na, K-phosphate buffer (pH 7.0), 100 mM lithium sulfate, 0.03 mM NADPH, 0.04 mM D,L-glyceraldehyde (monomerized at 80 deg C. for 10 min and cooled to RT) as a substrate and the sample solution (50 μL). The reaction was initiated by adding NADPH at 37 C and stopped by adding 0.5 M HCl, followed by the addition of 6 M NaOH containing 10 mM imidazole. The solution was heated at 60 C for 10 min to convert NADP to a fluorescent product. The fluorescence was measured using a spectrofluorometer with ex/em 360/460 nm. The assay was performed in duplicates. Protein content was determined using BCA assay.

[4] = tested on: rats with alloxan-induced diabetes; assay: Healing of excision wounds in rats with alloxan-induced diabetes, solutions applied on the wound; conditions: diabetic rats, 200 μl/daily on wound surface until full healing
Description: Use of 2-[(3Z)-6-fluoro-2-methyl-3-[(4-methylsulfinylphenyl)methylidene]inden-1-yl] acetic acid (sulindac) for the treatment of difficult healing wounds in rats with alloxan-induced diabetes.
63 adult male Wistar rats were used in the experiment. All animals were kept under observation for two weeks before the onset of the experiment to exclude any intercurrent infection. Animals were housed in standard plastic cages by 5 animals per cage. Rats were kept in air-conditioned room at 22±2° C., humidity of 60-70% and a natural light (12/12 in the day/night cycle). All rats were fed ad libitum with standard laboratory rats chow.
Diabetes mellitus was induced with alloxan, a highly toxic compound that destroyed the β-cells of the pancreas Langerhans islets, by single intraperitoneally injection at dose 170 mg per kg of body weight in 0.1 M citrate-phosphate buffer, pH 4.0 after 24-hours fasting. After alloxan administration drinking water was replaced by 2 per cent sucrose solution in tap water on 10 days period.
Rats were identified as diabetic on the basis of blood glucose levels (higher than 16 mmol/l after 12 h starvation at 10 days post-alloxan treatment; total 31 rats were diabetic). […]
Every day wounds were photographed by digital camera. Wound macroscopic parameters were quantified using the ImageJ software (NIH, USA).

[5] = mediana (25th; 75th percentile)

AR ([3]; M±m (SEM)): 0.64 ± 0.04 nmole NADPH/min/mg protein
Compound: CC1=C(CC(=O)O)c2cc(F)ccc2/C1=C\c1ccc([S+](C)[O-])cc1 (stereo not shown) [Sul, 2-[(3Z)-6-fluoro-2-methyl-3-[(4-methylsulfinylphenyl)methylidene]inden-1-yl] acetic acid]
Histology of the area of damage [1]: the skin was rebuilt in the form of a scar tissue made of modified connective tissue
Sorbitol levels ([2]; M±m (SEM)): 0.057 ± 0.005 nmol/mg
Sorbitol levels [2, 5]: 0.053(0.048; 0.075) ^ΔΔΔ nmol/mg
AR [3, 5]: 0.677(0.63; 0.69) ^ΔΔΔ nmole NADPH/min/mg protein
Full healing ([4]; M±m (SEM)): 23.7 ± 0.65 days
Full healing [4, 5]: 24.0(22.0; 25.0) ^Δ days
